According to patent US20050032863A1, “Method of treating or preventing central nervous system disorders with compounds having selectivity for the alpha 3 subunit of the benzodiazepine receptor” (priority 2003, published 2005):

Assays:
[1] = tested on: locomotor activity; conditions: open field test and different animal models of anxiety; cited from earlier work
[2] = tested on: male Wistar rats; test: Rat forced swim test; assay type: in vivo
Experimental: All animals were treated with verum or vehicle three times: shortly after the habituation session (23 h), 5 and 1 h prior to testing. All drugs were administered orally with an application volume of 1 ml/kg.
The animals were tested in a glass tank (23×30 cm, height 40 cm) filled to a depth of 28 cm with water at 22° C. (the animals could not touch the bottom). The glass tank was illuminated indirectly and was surrounded by dark brown shading walls (distance from the tank 20 cm) to prevent the view on the experimenter. The experiments were performed between 14:00 and 17:00 hours and the method was in general performed as described (Porsolt et al., 1979; Lucki, 1997).
On the first experimental day, rats were gently placed in the water for a 15 min period of habituation. On removal from the water, they were placed in a standard plexiglass box, the floor covered with paper towels, under an infrared heater for 30 min to dry. The next day, they were once more placed gently in the glass tank and observed for 5 min. The behaviour of the animals was video-taped.
Following the experiment the video tapes were analysed manually and the duration of the following behaviours was recorded: Immobility: floating and making only those movements necessary to keep the nose above the water. […] Climbing: when rats strongly move their forepaws in and out of the water, usually against the walls.

[3] = tested on: extracellular serotonin in the striatum of rats; test: Microdialysis in the striatum of rats, reversal by flumazenil (Example 6); assay type: in vivo, rat
Experimental: (§1) The day before the experiment, male rats were anaesthetised with chloral hydrate (3.6%, 1 ml/100 g i.p.) and placed in a stereotaxic frame to implant a microdialysis guide cannula (CMA/12, Carnegie Medicine, Sweden). Scalp was incised in the median anterior-posterior direction between lambda and bregma and a small hole was drilled into the skull. The stereotaxic coordinates were AP=+1.0 mm, L=−3.0 mm from bregma and 1.5 mm from the skull surface for the striatum according to the atlas of Paxinos and Watson, (1986) (1). Dental cement (Sinfony(2)) was used to fix the guide cannula and anchor screws to the cranium. During the surgery rectal temperature was maintained at 37° C. using a heating blanket.
The day before the experiment the microdialysis probe (CMA/12, membrane length 4 mm, Carnegie Medicin, Sweden) was inserted into the striatum through the guide cannula. […] Microvials were stored in a fraction collector (CMA/170) at a temperature of 8° C. until analysed. […]
Dialysates were directly analysed by reverse-phase high-performance liquid chromatography with electrochemical detection (HPLC-EC). […]
(§2) Therefore data of each animal were expressed as percentages. Data from dialysates before administering the substances were averaged, and the mean set as 100%; all individual values were calculated accordingly.

[4] = tested on: extracellular 5-HT, HIAA and dopamine in the striatum of rats; test: Microdialysis in the striatum of rats (Example 3); assay type: in vivo, rat; conditions: 30 mg/kg i.p.
Experimental: as §1
The day before the experiment the microdialysis probe (CMA/12, membrane length 4 mm, Carnegie Medicin, Sweden) was inserted into the striatum through the guide cannula. On the day of experiment the probe was perfused with Ringer solution (148 mM NaCl, 4 mM KCl, 2,4 mM CaCl2, pH=6,0). The flow rate (1 μl/min) allowed to collect 20 μl samples every 20 minutes into microvials. Microvials were stored in a fraction collector (CMA/170) at a temperature of 8° C. until analysed. Using a swivel joint the perfusion arrangement allowed the animal to move freely within a hemispherical bowl. After an adjusting time of one hour 3 consecutive 20-min-fractions were collected to establish a stable basal level of neurotransmitter release.
Thereafter 30 mg/kg E131-00139 or an equivalent volume of 0.5% tylose/PEG300 9:1, respectively, was administered. Then collecting samples was continued for at least 220 minutes.
Dialysates were directly analysed by reverse-phase high-performance liquid chromatography with electrochemical detection (HPLC-EC). The samples were separated by a ZORBAX SB-Aq 2.1 mm ID×100 mm column (Agilent Technologies). […]
as §2

[5] = 10 and 30 mg/kg p.o., 23, 5 and 1 h prior to testing

In the case of `O=C1N=C(N2CCCCC2)CN1c1ccc(Cl)cc1` [ELB139, 1-(4-chlorophenyl)-4-piperidinoimidazolin-2-one], the locomotor activity [1] is given as “did not show a significant reduction”, the “activity following the return to the homecage (subjective observation)” value ([2]; 30 mg/kg p.o.) is given as “moderate hypoactivity” and the climbing time ([2]; 30 mg/kg p.o.) is given as “slight but not significant decrease”. For the same compound, the duration of swimming ([2]; 30 mg/kg p.o., 23, 5 and 1 h prior to testing) was “increased”, the tolerability ([2]; 10 and 30 mg/kg p.o.) was “well tolerated” and the climbing behaviour [2, 5] was “not changed”. For the same compound, the time spent immobile [2, 5] was “had no effect”, the “extracellular serotonin in the striatum compared to mean basal level” value ([3]; 30 mg/kg i.p.) was “marked increase” and the “increase of extracellular serotonin after flumazenil” value ([3]; ELB139 30 mg/kg i.p., flumazenil 10 mg/kg i.p. 40 minutes later) was “not only reversed but serotonin level even decreases below the mean basal level”. For the same compound, the “HIAA concentration in the striatum” value [4] was “without influencing”, the “dopamine concentration in the striatum” value [4] was “did also not influence” and the “5-HT concentration in the striatum” value ([4]; vs tylose vehicle) was “significantly and unexpectedly increased”.
